{"source": "patent US4329295A", "about": "“24-Cyclopropylcholene-3β, 22-diols and esters thereof” (G. D. Searle & Co., priority 1981, dated 1982)", "system": "HMG Co A reductase", "experiment": "Reduction of HMG Co A reductase activity in liver microsomes of rats treated with 20,25-diazacholesterol and test compound", "assay_type": "in vivo, rat", "conditions": "male CD rats, test compound given last 3 days with 20,25-diazacholesterol, [14C]-mevalonic acid formation vs control", "protocol": "Male rats of the CD strain from Charles River weighing 180-250 g., initially being kept on a regular laboratory diet, are used. The rats are maintained in reverse light-cycle room for 3-6 days. 20,25-Diazacholesterol is administered for a total of 6 days at a dose of 5 mg/kg/day (IG). The last 3 days the test compound is administered along with the 20,25-diazacholesterol. Both compounds are given 2 hours prior to the test on last day. The rats are anesthetized with ether, sacrificed, and the livers removed. Liver microsomes are collected by differential centrifugation after homogenation. Liver microsomes are used as the source of the HMG Co A reductase. Details of the assay are reported in L. W. White and H. Rudney, Biochemistry 9, 2713 (1970); Brown et al., J. Biol. Chem. 248, 4731 (1973); and C. A. Edwards, Biochem. Biophys. Acts 409, 39 (1975). The percent change in formation of [^ 14 C]-mevalonic acid from [^14 C]-HMG Co A is used as a measure of enzyme activity for treated groups versus control groups of rats. If the treated groups have less activity, and the decrease is statistically significant at P≤0.05, the compound is rated active.", "data": [{"compound": "C[C@@H]([C@H]1CC[C@H]2[C@@H]3CC=C4C[C@@H](O)CC[C@]4(C)[C@H]3CC[C@]12C)[C@@H](O)CCC1CC1", "note": "[24-cyclopropylchol-5-ene-3β,22S-diol]", "values": [{"measurement": "inhibition of HMG Co A reductase activity", "setting": "0.5 mg/kg (IG)", "result": 32, "unit": "%"}, {"measurement": "inhibition of HMG Co A reductase activity", "setting": "5 mg/kg (IG)", "result": 79, "unit": "%"}]}]}
